# Source: article PMC5078989, “Targeted inhibition of the COP9 signalosome for treatment of cancer” (Nature Communications, 2016)
# System: panel of cancer cell lines
# Experiment: Cell viability (CellTiter-Glo) dose-response across cancer cell line panel;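 for EC50: after 72 h compound incubation with CellTiter-Glo ATP readout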
# Type: cell-based, human
# Conditions: for EC50: Homo sapiens
# Source text: Next, we explored the effect of CSN5 inhibition on the viability of cancer cells. To obtain a comprehensive picture, we generated dose–response curves with a CSN5 inhibitor across more than 500 cancer cell lines in a previously described standardized setting[47] (Supplementary Data 1).
# A standardized CellTiter-Glo Assay (Promega #G7570) based on the quantification of ATP was applied according to the manufacturer's protocol to measure the amount of viable cells in culture. In brief, cells were seeded into 384-well plates at optimal density for each cell line. After 4 h, compounds were added at different concentrations in growth medium and incubated for another 72 h in a humidifying chamber at 37 °C and 5% CO2. […] EC50 values were calculated from the plot of percentage of inhibition versus inhibitor concentration using the nonlinear regression analysis software Origin 7.5SR6 (OriginLab Corp.).
compound,measurement,setting,value
NS(=O)(=O)OC[C@@H]1C[C@@H](n2ccc3c(N[C@H]4CCc5ccccc54)ncnc32)C[C@@H]1O [MLN4924],AMAX,A4/Fuk,-96.9287
same,AMAX,A101D,-92.8172
same,AMAX,A549,-65.6237
same,AMAX,A-704,-78.0973
same,AMAX,AM-38,-93.2889
same,AMAX,AU565,-66.5254
same,AMAX,AsPC-1,-50.1525
same,AMAX,BFTC-909,-84.6841
same,AMAX,BHY,-77.3535
same,AMAX,BICR 6,-87.6265
same,AMAX,BICR 16,-96.2639
same,AMAX,C32,-75.1217
same,AMAX,COLO 201,-80.4634
same,AMAX,Caki-1,-69.6053
same,AMAX,FaDu,-85.8426
same,AMAX,GP2d,-76.2986
same,AMAX,HARA,-86.2104
same,AMAX,HCC1143,-80.6145
same,AMAX,HCC-15,-95.7573
same,AMAX,HD-MY-Z,-88.7975
same,AMAX,HEC-151,-95.1252
same,AMAX,HEL,-97.9201
same,AMAX,HLC-1,-88.3206
same,AMAX,HLF,-88.8149
same,AMAX,HSC-4,-89.1597
same,AMAX,Hep3B,-41.8233
same,EC50,59M,631 nM
same,EC50,92.1,213 nM
same,EC50,639-V,191 nM
same,EC50,697,373 nM
same,EC50,769-P,199 nM
same,EC50,"786-0, 786-O",373 nM
same,EC50,"1321-N1, 1321N1",304 nM
same,EC50,8505C,271 nM
same,EC50,A4/Fuk,340 nM
same,EC50,A101D,403 nM
same,EC50,"A 172, A172",180 nM
same,EC50,"A204, A-204",267 nM
same,EC50,"A498, A-498",245 nM
same,EC50,"A549, A549",3600 nM
same,EC50,"A673, A-673",88.1 nM
same,EC50,"A704, A-704",622 nM
same,EC50,"A2058, A2058",316 nM
same,EC50,"A2780, A2780",330 nM
same,EC50,"A-375, A-375",281 nM
same,EC50,"ACC-MESO-1, ACC-MESO-1",1560 nM
same,EC50,"AM-38, AM-38",297 nM
same,EC50,AML-193,901 nM
same,EC50,"AN3-CA, AN3 CA",309 nM
same,EC50,"AU565, AU565",505 nM
same,EC50,BC-3C,1970 nM
same,EC50,BEN,1100 nM
same,EC50,"BFTC-909, BFTC-909",650 nM
same,EC50,BHY,1870 nM
same,EC50,BICR 6,181 nM
same,EC50,BICR 16,220 nM
same,EC50,BICR 18,11500 nM
same,EC50,BICR 31,156 nM
same,EC50,"BT-16, BT-16",98 nM
same,EC50,"BT-474, BT-474",871 nM
same,EC50,"BT-549, BT-549",382 nM
same,EC50,"BXPC-3, BxPC-3",530 nM
same,EC50,C3A,> 30000 nM
same,EC50,"C32, C32",1140 nM
same,EC50,"CAKI-1, Caki-1",327 nM
same,EC50,"CAKI-2, Caki-2",2360 nM
same,EC50,CAL-12T,1210 nM
same,EC50,"CAL-27, CAL 27",161 nM
same,EC50,CAL-29,283 nM
same,EC50,"CAL-54, CAL-54",772 nM
same,EC50,"CAL-85-1, CAL-85-1",144 nM
same,EC50,"CAL-120, CAL-120",154 nM
same,EC50,"CAL-148, CAL-148",> 30000 nM
same,EC50,"CAMA-1, CAMA-1",94.3 nM
same,EC50,"CAPAN-1, Capan-1",301 nM
same,EC50,CAS-1,14000 nM
same,EC50,"CCRF-HSB-2, CCRF-HSB-2",296 nM
same,EC50,"CEM/C1, CEMC1",257 nM
same,EC50,"CFPAC-1, CFPAC-1",703 nM
same,EC50,CL-34,89.6 nM
same,EC50,CMK,138 nM
same,EC50,"CMK-86, CMK-86",230 nM
same,EC50,"COLO 201, COLO 201",268 nM
same,EC50,"COLO 205, COLO 205",268 nM
same,EC50,"COLO 320, COLO-320",883 nM
same,EC50,"COLO 699, COLO-699",890 nM
same,EC50,"COLO 704, COLO-704",384 nM
same,EC50,"COLO-678, COLO-678",4890 nM
same,EC50,"COLO-679, COLO-679",133 nM
same,EC50,"COLO-741, COLO 741",130 nM
same,EC50,"COLO-829, COLO 829",319 nM
same,EC50,"COR-L23, COR-L23",1660 nM
same,EC50,"COR-L47, COR-L47",49.6 nM
same,EC50,"COR-L105, COR-L105",469 nM
same,EC50,"COV362, COV362",175 nM
same,EC50,COV644,23600 nM
same,EC50,"CW-2, CW-2",6310 nM
same,EC50,"Calu-1, Calu-1",2340 nM
same,EC50,"Calu-6, Calu-6",294 nM
same,EC50,"ChaGo-K-1, ChaGo-K-1",778 nM
same,EC50,"Ci-1, CI-1",28.2 nM
same,EC50,DAN-G,4140 nM
same,EC50,DB,732 nM
same,EC50,"DLD-1, DLD-1",641 nM
same,EC50,"DMS-53, DMS 53",22800 nM
same,EC50,"DMS-153, DMS 153",42.9 nM
same,EC50,"DMS-273, DMS 273",958 nM
same,EC50,"DND41, DND-41",513 nM
same,EC50,"DU-4475, DU4475",99.4 nM
same,EC50,Daoy,240 nM
same,EC50,"Detroit 562, Detroit 562",478 nM
same,EC50,"EBC-1, EBC-1",341 nM
same,EC50,"EFM-19, EFM-19",1390 nM
same,EC50,"EOL1, EOL-1",65.3 nM
same,EC50,FaDu,231 nM
same,EC50,"G-401, G-401",1550 nM
same,EC50,"G-402, G-402",811 nM
same,EC50,GAMG,373 nM
same,EC50,"GB-1, GB-1",479 nM
same,EC50,"GDM-1, GDM-1",188 nM
same,EC50,"GI-1, GI-1",207 nM
same,EC50,GP2d,759 nM
same,EC50,"Granta-519, GRANTA-519",117 nM
same,EC50,H4,229 nM
same,EC50,HARA,640 nM
same,EC50,"HCC15, HCC-15",414 nM
same,EC50,"HCC44, HCC-44",167 nM
same,EC50,"HCC70, HCC70",390 nM
same,EC50,"HCC78, HCC-78",183 nM
same,EC50,"HCC95, HCC-95",105 nM
same,EC50,"HCC827, HCC827",7720 nM
same,EC50,"HCC1143, HCC1143",1670 nM
same,EC50,"HCC1187, HCC1187",348 nM
same,EC50,"HCC1500, HCC1500",6580 nM
same,EC50,"HCC1588, HCC-1588",1370 nM
same,EC50,"HCC1806, HCC1806",70.1 nM
same,EC50,"HCC1954, HCC1954",417 nM
same,EC50,"HCC4006, HCC4006",1530 nM
same,EC50,HCC-56,2460 nM
same,EC50,HCC-1359,375 nM
same,EC50,HCC-1833,2350 nM
same,EC50,"HCT-15, HCT-15",934 nM
same,EC50,HD-MY-Z,124 nM
same,EC50,HEC-50B,961 nM
same,EC50,HEC-151,225 nM
